# Laboratory results published in BindingDB's records for doi:10.1074/jbc.M112.399303 (Universidade Federal do Rio de Janeiro, 2014).
# Legend:
# Assay in all cases: Diffusion Ordered Spectroscopy (DOSY)
# Details in all cases: 11 °C
# [1] = biological target: T1, Trans-sialidase [3-643,Y342H] (Trypanosoma cruzi, UniProt Q9BHJ5, Y342H)
# T1 construct: 3-643
# Protocol: (§1) Solutions of TS, TSY342H, and TSD247A in 20 mM Tris-HCl were exchanged with deuterated PBS using four cycles of concentration with Amicon Ultra (50,000 nominal molecular weight limit; Millipore) and diluted in deuterated PBS. One hundred microliters of 0.1 mM protein solution (TcTSs or BSA) was titrated with the sialoside (0.2, 0.4, 0.6, 0.8, 1.0, 1.2, 1.6, and 2.0 mM) or lacto-N-neotetraose (0.1, 0.2, 0.3, 0.4, 0.5, 0.6, 0.7, and 0.9mM) as a negative control. The solution containing 0.1 mM protein plus sialoside was further titrated with Me-Lac (0.1, 0.2, 0.3, 0.4, 0.5, 0.6, 0.7, and 0.9 mM) in Shigemi tubes. NMR spectra were obtained at a probe temperature of 293 K on a Bruker DMX 600-MHz spectrometer equipped with a 5-mm self-shielded gradient triple resonance probe. All DOSY experiments were performed with a stimulated echo using bipolar gradient pulses for diffusion, one spoil gradient, and the 3-9-19 pulse sequence with gradients for water suppression according to the Bruker pulse program stebpgp1s19. The gradient duration was set to δ = 10 ms (protein-only experiments) and 20ms (protein⋅carbohydrate complexes experiments), and the diffusion time was set to Δ = 40 ms. Gradient strength was linearly varied in 16 steps from 0.6 to 6.7 G/cm. For each of the 16 gradient amplitudes, eight transients of 192 complex data points were acquired to a 10.0-ppm spectral width. The pulse repetition delay between each scan was 3 s.
# Trans-sialidase [3-643] = biological target: T2, Trans-sialidase [3-643] (Trypanosoma cruzi, UniProt Q9BHJ5)
# T2 construct: 3-643
# T2 sequence (Q9BHJ5 whole entry): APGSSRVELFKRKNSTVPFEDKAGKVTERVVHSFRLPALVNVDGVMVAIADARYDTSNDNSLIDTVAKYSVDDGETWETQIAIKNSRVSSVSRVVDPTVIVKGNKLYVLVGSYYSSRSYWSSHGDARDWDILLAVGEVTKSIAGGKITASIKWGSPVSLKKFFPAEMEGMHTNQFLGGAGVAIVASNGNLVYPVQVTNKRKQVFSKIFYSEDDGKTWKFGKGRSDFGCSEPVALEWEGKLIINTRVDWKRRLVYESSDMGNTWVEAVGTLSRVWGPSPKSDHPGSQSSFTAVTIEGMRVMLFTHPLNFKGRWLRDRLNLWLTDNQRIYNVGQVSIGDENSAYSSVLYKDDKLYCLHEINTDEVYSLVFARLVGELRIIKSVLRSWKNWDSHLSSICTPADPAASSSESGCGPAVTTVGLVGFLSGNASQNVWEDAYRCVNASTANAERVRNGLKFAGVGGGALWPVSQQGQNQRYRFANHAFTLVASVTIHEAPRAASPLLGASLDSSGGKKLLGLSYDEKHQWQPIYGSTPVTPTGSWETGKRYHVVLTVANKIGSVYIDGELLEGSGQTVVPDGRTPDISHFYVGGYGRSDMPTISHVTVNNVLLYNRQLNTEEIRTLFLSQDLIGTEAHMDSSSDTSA
# Protocol: as §1
# [2] = biological target: T3, Trans-sialidase [3-643,D247A] (Trypanosoma cruzi, UniProt Q9BHJ5, D247A)
# T3 construct: 3-643
# Protocol: as §1
# T1 sequence (Q9BHJ5 3-643 Y344H): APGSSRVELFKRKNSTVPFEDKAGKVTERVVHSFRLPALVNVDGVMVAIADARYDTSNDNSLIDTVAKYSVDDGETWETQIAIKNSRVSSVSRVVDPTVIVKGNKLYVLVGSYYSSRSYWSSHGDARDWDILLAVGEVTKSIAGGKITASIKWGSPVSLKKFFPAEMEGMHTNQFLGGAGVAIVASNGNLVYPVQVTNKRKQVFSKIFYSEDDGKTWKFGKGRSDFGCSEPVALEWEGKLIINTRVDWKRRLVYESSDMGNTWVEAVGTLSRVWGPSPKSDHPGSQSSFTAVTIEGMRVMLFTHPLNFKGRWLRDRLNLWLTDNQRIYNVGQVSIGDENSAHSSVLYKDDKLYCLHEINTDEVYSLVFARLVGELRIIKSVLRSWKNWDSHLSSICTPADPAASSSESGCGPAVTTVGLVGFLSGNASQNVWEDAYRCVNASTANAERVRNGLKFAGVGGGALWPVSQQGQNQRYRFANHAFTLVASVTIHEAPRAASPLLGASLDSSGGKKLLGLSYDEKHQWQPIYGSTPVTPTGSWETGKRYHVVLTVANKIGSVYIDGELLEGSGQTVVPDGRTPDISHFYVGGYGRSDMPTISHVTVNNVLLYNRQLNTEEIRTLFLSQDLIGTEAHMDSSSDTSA
# T3 sequence (Q9BHJ5 3-643 D249A): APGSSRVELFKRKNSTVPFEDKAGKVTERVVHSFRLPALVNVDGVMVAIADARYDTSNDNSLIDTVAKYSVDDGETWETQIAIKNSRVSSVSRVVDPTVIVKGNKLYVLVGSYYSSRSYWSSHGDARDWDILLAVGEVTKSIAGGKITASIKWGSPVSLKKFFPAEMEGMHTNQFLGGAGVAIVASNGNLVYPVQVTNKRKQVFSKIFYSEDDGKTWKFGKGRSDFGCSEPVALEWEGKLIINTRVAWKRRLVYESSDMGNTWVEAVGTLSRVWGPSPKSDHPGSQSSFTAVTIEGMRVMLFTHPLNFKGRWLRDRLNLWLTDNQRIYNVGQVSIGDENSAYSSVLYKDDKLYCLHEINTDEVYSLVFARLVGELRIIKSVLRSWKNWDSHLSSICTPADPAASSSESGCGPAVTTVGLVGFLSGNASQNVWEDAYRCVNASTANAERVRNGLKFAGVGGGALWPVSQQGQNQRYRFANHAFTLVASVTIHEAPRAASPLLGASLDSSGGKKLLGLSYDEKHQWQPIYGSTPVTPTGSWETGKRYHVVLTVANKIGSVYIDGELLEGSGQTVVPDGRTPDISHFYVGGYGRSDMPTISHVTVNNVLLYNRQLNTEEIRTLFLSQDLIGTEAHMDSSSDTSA
compound,measurement,setting,value
CO[C@@H]1O[C@H](CO)[C@@H](O[C@@H]2O[C@H](CO)[C@H](O)[C@H](O)[C@H]2O)[C@H](O)[C@H]1O [CHEBI:610092],Kd,[1],52 µM
same,Kd,Trans-sialidase [3-643],15 µM
COC1OC(CO)C(O)C(SC2(C(=O)O)CC(O)C(NC(C)=O)C([C@H](O)[C@H](O)CO)O2)C1O (stereo not given in full) [NeuSGal],Kd,Trans-sialidase [3-643],456 µM
"CC(=O)NC1C(O)CC(OC2C(O)C(CO)OC(OC3C(CO)OC(O)C(O)C3O)C2O)(C(=O)O)OC1[C@H](O)[C@H](O)CO (stereo partly drawn) [α2,3'-sialyllactose]",Kd,[2],107 µM
same,Kd,[1],234 µM
